Source: ChEMBL document CHEMBL3045281, “Design, synthesis, and biological evaluation of new 3-hydroxy-2-oxo-3-trifluoromethylindole as potential HIV-1 reverse transcriptase inhibitors” (Med Chem Res, 2006)
pIC50: −log10 of the molar value.

How the values were obtained:
[1] = biological target: Human immunodeficiency virus type 1 reverse transcriptase (Human immunodeficiency virus 1, UniProt Q72547); test: Inhibition of RNA-dependent DNA polymerase activity of Human immunodeficiency virus 1 recombinant reverse transcriptase expressed in Escherichia coli using poly(rA)oligo(dT) template primer after 30 min
[2] = Cytotoxicity against Chlorocebus aethiops (African green monkey) Vero cells after 72 hr by trypan blue assay; type: cell-based; conditions: chlorocebus sabaeus

Compound	pIC50 [1]	CC50 at 72 h [2]
O=C1Nc2ccc(Cl)cc2C1(O)C(F)(F)F (stereo not given)	5.15	> 700 µM
CC(=O)N1C(=O)C(O)(C(F)(F)F)c2cc(Cl)ccc21 (stereo not given)	5.47	> 360 µM
O=C1Nc2ccccc2C1(O)C(F)(F)F (stereo not given)	5.22	> 650 µM
CN1C(=O)C(O)(C(F)(F)F)c2cc(Br)ccc21 (stereo not given)	5.44	> 250 µM
CC(=O)N1C(=O)C(O)(C(F)(F)F)c2cc(C)ccc21 (stereo not given)	5.08	> 650 µM
